From article PMC11478334, “Quaternized Curcumin Derivative—Synthesis, Physicochemical Characteristics, and Photocytotoxicity, Including Antibacterial Activity after Irradiation with Blue Light” (Molecules, 2024)
Like-named read-outs stand apart in the source and are kept apart here.

Legend:
Aliivibrio fischeri = assay: Microtox acute toxicity test; format: cell-based; settings: for acute toxicity / ecotoxicity verdict: tested at 1, 10 and 100 µM
Source text: All studied compounds were subjected to a Microtox acute toxicity test. The test is based on bioluminescent Aliivibrio fischeri bacteria, which are very sensitive to the presence of toxic substances. Changes in the toxicity of the environment surrounding the bacterium influence its respiratory processes and translate into the emitted bioluminescence intensity. Therefore, in contact with a toxic substance at a specific concentration, a linear decrease in luminescence is observed. Dimethylsulfoxide was used as a solubilizer of studied compounds in amounts not exceeding 1% v/v. To determine the effect of the solvent alone, 1% DMSO solution in water was also tested.
The acute toxicity of the tested curcumionoids was investigated on a Modern Water Microtox Model 500 apparatus equipped with Modern Water MicrotoxOmni 4.2 software, according to the 81.9% screening test procedure provided by the manufacturer (Modern Water, London, UK). All the reagents and solutions (Microtox Acute Reagent, Microtox Diluent, and Microtox Osmotic Adjusting Solution) were purchased from Tigret (Warsaw, Poland). Solutions of the tested compounds were prepared using DMSO and deionized water. […] Each compound was tested at three final concentrations (1 µM, 10 µM, and 100 µM) and at two time points: 5 min and 15 min. The change in the bacterial bioluminescence was monitored after the addition of the sample solution and compared to the negative control.

MRC-5—lung fibroblasts = assay: MTT cell viability assay; format: cell-based, human
Description: To determine the toxicity of the tested compounds against normal and tumor cells, a cell viability assay was performed using MTT dye. The following cell lines were used: PHDF—primary human dermal fibroblasts, MRC-5—lung fibroblasts, WM266-4—melanoma, and WM115—melanoma. Whenever possible, the IC50 value was calculated for each cell line. The IC50 results are reported in Table 9, while Figure 14 presents graphs illustrating the dependence of cell viability on the concentration of the tested compounds.
In order to analyze the cytotoxic effect of curcumin and compounds 2 and 3, different cell lines were used: PHDF—primary human dermal fibroblasts, MRC-5—lung fibroblasts, WM266-4—melanoma (low-melanotic), and WM115—melanoma (high-melanotic). All cell lines were seeded onto 96-well flat-bottom plates at a concentration of 15,000 cells/well. Curcumin (1) and compounds 2 and 3 were dissolved in the completed culture medium at the final concentrations of 5 µM, 10 µM, 20 µM, 30 µM, 40 µM, and 50 µM. The final volume of medium in each well was 200 µL. Cells which were not exposed to the tested compounds constituted a control group. After 24 h, each of the reagents was added to the cells. Control cells were not treated with synthesized reagents; they were incubated with a completed cell culture medium. The incubation of cells with 1, 2, or 3 lasted 24 and 48 h. Then, the medium was discarded, and the new medium containing MTT (3-(4,5-dimethylthiazol-2-yl)-2,5-diphenyltetrazolium bromide) (Affymetrix, Cleveland, OH, USA) at a final concentration of 0.5 mg/mL was added to the cell culture. Cells were incubated for 2.5 h in cell culture conditions. Next, the medium was removed, and 100 µL of DMSO (Thermo Scientific, Waltham, MA, USA) was added to dissolve the formed formazan crystals. The absorbance was read with a Multiskan plate reader at 570 nm and the background at 655 nm (Thermo Scientific, Waltham, MA, USA). The experiment was performed in triplicate.
PHDF cells were extracted from skin pieces collected following mastectomy procedures at the Greater Poland Cancer Centre in Poznań, Poland. Each time, informed patient agreement was acquired for the “The Cancer Genome Atlas (TCGA)” project to utilize biological material for scientific research purposes. […] The MRC-5, WM266-4, and WM115 cell lines were obtained from the American Type Culture Collection (ATCC). For culturing of the PHDF, WM266-4, and WM115 cell lines, the medium contained Dulbecco′s Modified Eagle′s Medium (DMEM) (Biowest, Nuaillé, France), 10% of fetal bovine serum (Biowest, Nuaillé, France), and 1% of penicillin/streptomycin agents (Merck Millipore, Darmstadt, Germany). Cells were incubated in a humidified incubator containing 5% CO2. The MRC-5 cell line was cultured similarly to the method described in our previous article. Briefly, cells were incubated at 37 °C in an atmosphere enriched with 5% CO2. The basic culture medium was Dulbecco’s Modified Eagle’s Medium (DMEM) (Biowest, Nuaillé, France) supplemented with 10% fetal bovine serum (FBS) (Biowest, Nuaillé, France) with the addition of 2 mM L-glutamine and 5% non-essential amino acid solution.

[1] = Aggregation studies by UV-vis serial dilution; format: physicochemical; settings: in DMF
Description: The aggregation properties of the studied compounds were evaluated using statistical analysis of the UV–vis absorption spectra during serial dilution. […] This can be associated with the presence of a positive charge that prevents aggregation due to the repulsion of the same charges. […] According to the literature, DMSO can permeate into curcumin clusters and stabilize the non-aggregated molecules due to solvation.
The aggregation studies were performed at ambient temperature. Known amounts of 2, 3, and curcumin as a reference in volumetric flasks were dissolved in DMSO and DMF and left to stir overnight. Then, the solutions were diluted appropriately to achieve concentrations in the range between 1.5 × 10^−6 mol/dm^3 and 5.5 × 10^−5 mol/dm^3. The samples were then moved into quartz cuvettes (l = 10 mm, Hellma, Müllheim, Germany), and their spectra were recorded using a Shimadzu U-1900 spectrophotometer (Shimadzu, Kyoto, Japan). The recorded spectra and numerical data were then used for the determination of the dependence between the maximum peak absorption and the sample concentration according to the A = f(c) function, used further for statistical verification of the Lambert–Beer law.

[2] = UV-vis absorption spectra (spectral properties); format: physicochemical
Source text: In the UV–vis spectra of the studied curcumin derivatives 2 and 3, typical absorption bands in the 350–550 nm range were noted (Figure 7). The absorption maxima of 2 and its quaternized derivative 3 were located close to 500 nm in both DMSO and DMF (for 2, λmax 496 nm in DMF and 502 nm in DMSO; for 3, λmax 489 nm in DMF and 495 nm in DMSO), whereas for the unsubstituted curcumin, the absorption maximum was located at 430 nm in DMF and 436 nm in DMSO. This implies that the presence of the BF2 moiety induces a strong bathochromic shift, as reported before. Further conversion of non-ionic 2-(morpholin-4-yl)ethoxy substituents present in 2 into quaternary ammonium cations present in 3 2-(N-methylmorpholinium)ethoxy groups induced a slight […] hypsochromic shift in both solvents. The strong absorption band originates mainly from π-π* electronic transition. To a lesser extent, such peaks come from the n-π* transition, although the importance of this crossing remains unclear.

[3] = Homo sapiens, Fibroblast, 24 h incubation, read-out: IC50 24 h
[4] = Homo sapiens, Fibroblast, 48 h incubation, read-out: IC50 48 h (converted)

Row | Compound | decrease in A. fischeri bioluminescence (Aliivibrio fischeri; 10 µM, after 5 min exposure) [%] | decrease in A. fischeri bioluminescence (Aliivibrio fischeri; 100 µM) [%] | acute toxicity / ecotoxicity verdict (Aliivibrio fischeri) | IC50 (MRC-5—lung fibroblasts; [3]) [µM] | IC50 (MRC-5—lung fibroblasts; [4]) [µM] | aggregation [1] | absorption maximum λmax ([2]; in DMF) [nm] | absorption maximum λmax ([2]; in DMSO) [nm] | decrease in A. fischeri bioluminescence (Aliivibrio fischeri; 1 µM) [%] | decrease in A. fischeri bioluminescence (Aliivibrio fischeri; 10 µM) [%] | IC50 (MRC-5—lung fibroblasts; 24 h incubation, read-out: IC50 24 h) [µM] | IC50 (MRC-5—lung fibroblasts; 48 h incubation, read-out: IC50 48 h (converted)) [µM] | effect on A. fischeri bioluminescence (Aliivibrio fischeri; lower concentrations (below 100 µM))
1 | C[N+]1(CCOc2ccc(C=CC3=CC(C=Cc4ccc(OCC[N+]5(C)CCOCC5)cc4)=[O+][B-](F)(F)O3)cc2)CCOCC1 [Compound 3] | 53 | 99 | could be ecotoxic at concentrations of 10 µM and 100 µM | > 50 | > 50 | negligible | 489 | 495 | – | – | – | – | –
2 | Curcumin [reference compound] | – | – | reveals ecotoxicity only at concentrations of 100 µM and 10 µM | – | – | strong aggregation | 430 | 436 | 0 | 99 | 39.5 ± 8.8 | 18.1 | –
3 | F[B-]1(F)OC(/C=C/c2ccc(OCCN3CCOCC3)cc2)=CC(/C=C/c2ccc(OCCN3CCOCC3)cc2)=[O+]1 [Compound 2] | – | 45 | – | > 50 | 3.8 | strong aggregation | 496 | 502 | – | – | – | – | negligible
